Experimental data from patent US12564560B1, “Selective serotonin receptor modulators and methods of making and using the same” (Park City Bio, LLC, priority 2024, dated 2026).

Experiments:
Type in all cases: cell-based
[1] = biological target: T1, 5-HT2C (Homo sapiens, UniProt P28335); assay: 5-HT2C Gq signaling bias compared to β-arrestin signaling; design: expressed in transfected cells; host or cells: HEK293T (Gq arm; β-arrestin arm not described); conditions: primary 5-HT2C signaling via Gq compared to β-arrestin
T1 sequence (P28335 33-458): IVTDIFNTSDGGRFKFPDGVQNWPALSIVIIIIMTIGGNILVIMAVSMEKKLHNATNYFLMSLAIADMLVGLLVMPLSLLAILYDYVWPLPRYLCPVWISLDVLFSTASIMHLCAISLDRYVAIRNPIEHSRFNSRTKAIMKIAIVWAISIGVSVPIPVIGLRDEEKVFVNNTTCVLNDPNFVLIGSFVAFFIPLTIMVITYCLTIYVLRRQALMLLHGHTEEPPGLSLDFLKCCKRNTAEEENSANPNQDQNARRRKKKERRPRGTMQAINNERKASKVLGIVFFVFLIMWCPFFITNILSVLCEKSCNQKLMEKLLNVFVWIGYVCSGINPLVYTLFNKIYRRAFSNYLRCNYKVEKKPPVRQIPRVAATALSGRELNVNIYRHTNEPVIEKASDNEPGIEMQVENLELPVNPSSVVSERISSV
Excerpt: To measure 5-HT2 receptor-mediated Gq activation via Gq/y1 dissociation as measured by Bioluminescence Resonance Energy Transfer (BRET) (McCorvy J D, Wacker D, Wang S, Agegnehu B, Liu J, Lansu K, Tribo AR, Olsen RHJ, Che T, Jin J, Roth BL. Structural determinants of 5-HT2B receptor activation and biased agonism. Nat Struct Mo/Biol. 2018; 25(9): 787-96), HEK293T cells were sub-cultured in Dulbecco's Modified Eagle Medium (DMEM) supplemented with 10% dialyzed fetal bovine serum (FBS) and were co-transfected in a 1:1:1:1 ratio with Rluc8-fused human Gaq (Gaq-Rluc8), a GFP2-fused to the C-terminus of human Gy1(Gy1-GFP2), human GI31, and 5-HT2 receptor using TransiT-2020. After at least 18-24 hours, transfected cells were plated in poly-lysine coated 96-well white clear bottom cell culture plates in DMEM containing 1% dialyzed FBS at a density of 25,000-40,000 cells in 200 μL per well and incubated overnight. The following day, medium was decanted, and cells were washed with 60 μL of drug buffer (1×HBSS, 20 mM HEPES, pH 7.4), then 60 μL of drug buffer was added per well. Cells were pre-incubated at in a humidified atmosphere at 37° C. before receiving drug stimulation. […] Substrate addition occurred 15 minutes before reading and utilized 10 μL of the Rluc substrate coelenterazine 400a for Gq dissociation BRET^2 (Prolume/Nanolight, 5 μM final concentration). Plates were read for luminescence at 400 nm and fluorescent GFP2 emission at 510 nm at 1 second per well using a Mithras LB940 multimode microplate reader (e.g. one provided by Berthold). The BRET ratios of fluorescence/luminescence were calculated per well and were plotted as a function of drug concentration using Graphpad Prism 8 (Graphpad Software Inc., San Diego, CA). Data were normalized to % 5-HT stimulation and analyzed using nonlinear regression “log(agonist) vs. response” to yield Emax and EC50 parameter estimates. […]

[2] = biological target: T1, 5-HT2C; assay: 5-HT2 receptor-mediated Gq activation via Gq/γ1 dissociation BRET; design: expressed in transfected cells; host or cells: HEK293T
Excerpt: (§1) To measure 5-HT2 receptor-mediated Gq activation via Gq/y1 dissociation as measured by Bioluminescence Resonance Energy Transfer (BRET) (McCorvy J D, Wacker D, Wang S, Agegnehu B, Liu J, Lansu K, Tribo AR, Olsen RHJ, Che T, Jin J, Roth BL. Structural determinants of 5-HT2B receptor activation and biased agonism. Nat Struct Mo/Biol. 2018; 25(9): 787-96), HEK293T cells were sub-cultured in Dulbecco's Modified Eagle Medium (DMEM) supplemented with 10% dialyzed fetal bovine serum (FBS) and were co-transfected in a 1:1:1:1 ratio with Rluc8-fused human Gaq (Gaq-Rluc8), a GFP2-fused to the C-terminus of human Gy1(Gy1-GFP2), human GI31, and 5-HT2 receptor using TransiT-2020. After at least 18-24 hours, transfected cells were plated in poly-lysine coated 96-well white clear bottom cell culture plates in DMEM containing 1% dialyzed FBS at a density of 25,000-40,000 cells in 200 μL per well and incubated overnight. The following day, medium was decanted, and cells were washed with 60 μL of drug buffer (1×HBSS, 20 mM HEPES, pH 7.4), then 60 μL of drug buffer was added per well. Cells were pre-incubated at in a humidified atmosphere at 37° C. before receiving drug stimulation. Drug stimulation utilized 30 μL addition of drug (3X) diluted in McCorvy buffer (1×HBSS, 20 mM HEPES, pH 7.4, supplemented with 0.3% BSA fatty acid free, 0.03% ascorbic acid) and plates were incubated at for 1 hour at 37° C. Substrate addition occurred 15 minutes before reading and utilized 10 μL of the Rluc substrate coelenterazine 400a for Gq dissociation BRET^2 (Prolume/Nanolight, 5 μM final concentration). Plates were read for luminescence at 400 nm and fluorescent GFP2 emission at 510 nm at 1 second per well using a Mithras LB940 multimode microplate reader (e.g. one provided by Berthold). The BRET ratios of fluorescence/luminescence were calculated per well and were plotted as a function of drug concentration using Graphpad Prism 8 (Graphpad Software Inc., San Diego, CA). Data were normalized to % 5-HT stimulation and analyzed using nonlinear regression “log(agonist) vs. response” to yield Emax and EC50 parameter estimates. Results are shown in Table 5, where A=<10; B=10 to <100; C=100 to 1000 and D=>1000; +++=>80%; ++=50 to 80%; and +=<50%; NA=No Activity. […] Hallucinogenic (“Hall”) or non-hallucinogenic (“N-Hall”) plastogenic effect is predicted for compounds based on the level 5-HT2A agonist efficacy.

[3] = biological target: T2, 5-HT2B (Homo sapiens, UniProt P41595); assay: as above; conditions: HEK293T cells
T2 construct: expressed in transfected cells; host or cells: HEK293T
Excerpt: as §1

[4] = biological target: T3, 5-HT2A (Homo sapiens, UniProt P28223); assay: as above; conditions: for EC50: HEK293T cells; for Hall or N-Hall?: hallucinogenic or non-hallucinogenic effect predicted from level of 5-HT2A agonist efficacy
T3 construct: expressed in transfected cells; host or cells: HEK293T
Excerpt: as §1

T3 sequence (P28223 whole entry): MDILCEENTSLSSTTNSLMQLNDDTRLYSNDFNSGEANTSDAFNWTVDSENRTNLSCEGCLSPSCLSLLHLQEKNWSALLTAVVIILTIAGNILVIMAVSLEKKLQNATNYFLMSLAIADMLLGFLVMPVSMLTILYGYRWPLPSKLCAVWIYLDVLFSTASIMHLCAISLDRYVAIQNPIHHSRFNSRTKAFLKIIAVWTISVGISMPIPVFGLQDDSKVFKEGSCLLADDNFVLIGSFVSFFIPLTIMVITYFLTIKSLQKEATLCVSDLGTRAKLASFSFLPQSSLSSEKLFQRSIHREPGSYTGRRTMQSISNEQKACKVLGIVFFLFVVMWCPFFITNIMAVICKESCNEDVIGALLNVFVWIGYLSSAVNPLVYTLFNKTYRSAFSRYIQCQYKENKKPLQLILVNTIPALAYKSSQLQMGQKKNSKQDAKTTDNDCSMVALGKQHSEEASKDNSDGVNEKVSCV
T2 sequence (P41595 whole entry): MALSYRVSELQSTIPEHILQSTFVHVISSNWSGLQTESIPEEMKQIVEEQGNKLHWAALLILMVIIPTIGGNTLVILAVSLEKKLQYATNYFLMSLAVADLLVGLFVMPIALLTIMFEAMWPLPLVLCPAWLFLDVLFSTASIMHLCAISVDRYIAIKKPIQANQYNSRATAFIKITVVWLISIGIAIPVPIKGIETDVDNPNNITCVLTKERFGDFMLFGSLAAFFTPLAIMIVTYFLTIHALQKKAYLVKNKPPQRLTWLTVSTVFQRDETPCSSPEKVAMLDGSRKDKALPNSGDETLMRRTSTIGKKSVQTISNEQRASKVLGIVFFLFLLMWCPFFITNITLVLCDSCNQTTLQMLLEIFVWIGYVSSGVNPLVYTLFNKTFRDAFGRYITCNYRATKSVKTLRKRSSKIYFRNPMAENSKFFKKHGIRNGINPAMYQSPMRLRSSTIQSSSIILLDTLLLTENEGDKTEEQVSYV

| Compound | 5-HT2C Gq signaling bias? [1] | EC50 [2] | EC50 [3] | EC50 ([4]; Gq dissociation BRET) | Hall or N-Hall? [4] | Emax ([2]; read-out: 5-HT2C Emax) | Emax ([4]; Gq dissociation BRET, normalized to % 5-HT stimulation) |
| --- | --- | --- | --- | --- | --- | --- | --- |
| CNC[C@H]1C[C@@H]1c1cc(F)ccc1OC | Yes | 10 to 100 nM | 10 to 100 nM | 100 to 1000 nM | N-Hall | – | – |
| CNCC1CC1c1cc(F)ccc1SC (stereo not drawn) | Yes | < 10 nM | – | 100 to 1000 nM | N-Hall | – | – |
| CSc1ccc(F)cc1C1CC1CN(C)C (stereo not drawn) | Yes | 10 to 100 nM | – | > 1000 nM | N-Hall | < 50% | < 50% |
